Measurements: US20190388513A1, “OIL BASED FORMULATIONS FOR SUBLINGUAL AND BUCCAL DELIVERY” (BIOLINGUS IP LLC, priority 2017, published 2019)

How the values were obtained:
[1] = system: diabetic mice; test: Sublingual insulin glargine study, solid dosage formulation: blood glucose in diabetic mice (Example 2); assay type: in vivo, mice (strain C57/BL6); conditions: sublingual insulin glargine 10 or 50 IU/kg absorbed on solid dosage formulation, versus SC insulin glargine 1 IU/kg
Experimental: One solid dosage formulation was placed underneath the tongue of anesthetised diabetic mice. Blood glucose was measured at 0 h, 1 h, 2 h, 4 h, 8 h, 20 h and 24 h.
Four groups of five mice were treated. The treatment groups were administered as follows: 1) sublingual solid dosage formulation placebo (Group 1: SL-CSSR 4; wherein “CSSR-4” means a solid formulation containing vitamin E, PEG 200 and flavouring oils). 2) 1 IU/kg subcutaneously administered insulin glargine (Group 2: SC-Insulin glargine 1 IU/kg); 3) 10 IU/kg sublingually administered insulin glargine (Group 3: SL-Insulin glargine 10 IU/kg); and 4) 50 IU/kg sublingually administered insulin glargine (Group 4: SL-Insulin glargine 50 IU/kg). For animal studies using solid formulations, tablets were dissolved in water to form a gel. The gel was then placed under the tongue of the mice instead of the tablet.

[2] = system: diabetic mice; test: Sublingual insulin aspart study: blood glucose in diabetic mice (Example 1); assay type: in vivo, mice (strain C57/BL6); conditions: sublingual 100 U/kg insulin aspart in TPMCEu oil, without exenatide, versus SC insulin aspart 1 IU/kg
Experimental: For the experiments described below, mice of approximately 60 g were used. 5 μL of the resulting oil mixture comprising Insulin Aspart was placed underneath the tongue of anesthetised diabetic mice. […] Five groups of five mice were treated. […] These were compared to 4) 1 IU/kg subcutaneously administered insulin aspart (SC-Insulin aspart) and 5) sublingual oil placebo ([…]).

[3] = Sublingual resveratrol: plasma resveratrol levels (Cmax, AUC) in rats, LC-MS/MS (Example 7); assay type: in vivo; conditions: sublingual 10 mg in oil formulation (CSSR6d) versus oral 10 mg in sugar syrup, SD rats, up to 24 hours
Experimental: Resveratrol was suspended in 50% sugar solution and the mixture spun until homogenous for oral ingestion. Two groups of each three SD rats were treated. The treatment groups were administered as follows: 1) sublingual resveratrol in oil formulation (Group 1: SL-resveratrol 10 mg in oil formulation); 2) oral administered resveratrol in sugar syrup (Group 2: OP resveratrol 10 mg in sugar syrup). Nine blood sampling time points up to 24 hours post dosing per anima […]. Plasma samples bio analysis was performed with LC-MS/MS method.

insulin glargine
Blood glucose levels 0-24 h, compared with subcutaneous delivery [1]: comparable to subcutaneous delivery of insulin glargine

insulin aspart
Blood glucose levels / AUC0-240min, compared with subcutaneous delivery [2]: comparable to subcutaneous delivery of insulin aspart

Oc1ccc(C=Cc2cc(O)cc(O)c2)cc1 [resveratrol]
Absorbability relative to orally administered resveratrol (Cmax and AUC of blood resveratrol levels) [3]: 20 to 40 times
